Assays:
[1] = test system: HeLa cells; assay: Cytotoxicity of anticancer drug loaded nanoparticles (MTT); settings: Dox series; 8 h of exposure, MTT after 48 h of incubation
Method: After 24 h of incubation at 37° C., 5% CO2, Dox, CPT or Oxa loaded nanoparticles were added to the cells and incubated for 8 h followed by media change. The cells were then incubated for another 40 h before cell viability analysis.
Cell viabilities of HeLa and HeLa-DsRed were measured using the standard MTT assay. In a 96-well plate, after incubating HeLa or HeLa-DsRed cells with blank or cargo-loaded nanoparticles, the MTT reagent (5 mg/mL, in 30 μL PBS buffer) was added and the cells were incubated for another 4 h at 37° C. The cell culture media was then carefully removed and 200 μL of DMSO was added to each well. The DMSO solution was then transferred into a clean 96-well plate and the absorbance at 570 nm was recorded by a microplate reader. All experiments were performed in quadruplicate.
Dose-dependent cytotoxicity was then examined.

[2] = test system: Cy5-RNA; assay: RNA binding test of lipidoid nanoparticles; format: physicochemical
Method: (§1) Lipidoids were fabricated into nanoparticles for all delivery applications. Briefly, lipidoids were mixed with sodium acetate buffer (25 mM, pH 5.2), sonicated for 30 min in an ultrasonic bath, followed by another 30 min of vigorous vortexing. The as-prepared blank LNPs were stored at 4° C. For Cy5-RNA/LNP, mRNA/LNP and protein/LNP complexation, blank lipidoid nanoparticles were mixed with RNA molecules or (−30)GFP-Cre protein in PBS buffer (pH 7.4) following our previously reported procedures and incubated at room temperature for another 30 min before use. Typical procedures for Nile red encapsulation are as follows: 5 μL of Nile red stock solution in acetone was added into an empty vial, which was then placed in a vacuum oven to completely remove the organic solvent. Then, a predetermined amount of blank LNP stock solution (1.0 mg/mL) was added into the vial. The mixture was sonicated for 40 min in an ultrasonic bath and stirred overnight at room temperature. The final concentration of Nile red was adjusted to 6.6×10-7 mol L-1 and 6×10-7 mol L-1 for thiol triggered release study and cell incubation, respectively, by diluting with PBS as necessary. Typical procedures for CPT and DiO/DiI FRET pair encapsulation are as follows: 100 μL of DiO/DiI stock solution in MeOH was charged into an empty vial and placed in a vacuum oven to remove the organic solvent. Lipidoids (2.0 mg) in 200 μL of methanol were then added into the vial and stirred to produce a homogeneous solution. Then, 600 μL of DI water was added dropwise in 10 min with continuous stirring. The resulting mixture was dialyzed against DI water for 24 h (Thermo Scientific Slide-A-Lyzer Dialysis Cassette, MWCO=3500 Da), and fresh water was replaced every 4 h. Typical procedures for encapsulation of calcein and doxonorubicin hydrochloride are as follows: precalculated amounts of calcein or Dox stock solutions in DI water was diluted into 800 μL with sodium acetate buffer, and used as the selective solvents to trigger the self-assembly process of lipidoids in methanol (5 mg/mL), respectively. […]

[3] = Thiol-triggered calcein release (fluorescence dequenching); format: physicochemical; settings: DTT 1 mM, 5 mM and 10 mM, 12 h incubation
Method: as §1, with “solvent.” for “solvent. Lipidoids (2.0 mg) in 200 μL of methanol were then added into the vial and stirred to produce a homogeneous solution. Then, 600 μL of DI water was added dropwise in 10 min with continuous stirring. The resulting mixture was dialyzed against DI water for 24 h (Thermo Scientific Slide-A-Lyzer Dialysis Cassette, MWCO=3500 Da), and fresh water was replaced every 4 h. Typical procedures for encapsulation of calcein and doxonorubicin hydrochloride are as follows: precalculated amounts of calcein or Dox stock solutions in DI water was diluted into 800 μL with sodium acetate buffer, and used as the selective solvents to trigger the self-assembly process of lipidoids in methanol (5 mg/mL), respectively.”

[4] = Thiol-triggered Nile red release; format: physicochemical
Method: Lipidoids were fabricated into nanoparticles for all delivery applications. Briefly, lipidoids were mixed with sodium acetate buffer (25 mM, pH 5.2), sonicated for 30 min in an ultrasonic bath, followed by another 30 min of vigorous vortexing. The as-prepared blank LNPs were stored at 4° C. For Cy5-RNA/LNP, mRNA/LNP and protein/LNP complexation, blank lipidoid nanoparticles were mixed with RNA molecules or (−30)GFP-Cre protein in PBS buffer (pH 7.4) following our previously reported procedures and incubated at room temperature for another 30 min before use. Typical procedures for Nile red encapsulation are as follows: 5 μL of Nile red stock solution in acetone was added into an empty vial, which was then placed in a vacuum oven to completely remove the organic solvent. Then, a predetermined amount of blank LNP stock solution (1.0 mg/mL) was added into the vial. The mixture was sonicated for 40 min in an ultrasonic bath and stirred overnight at room temperature. The final concentration of Nile red was adjusted to 6.6×10-7 mol L-1 and 6×10-7 mol L-1 for thiol triggered release study and cell incubation, respectively, by diluting with PBS as necessary. Typical procedures for CPT and DiO/DiI FRET pair encapsulation are as follows: 100 μL of DiO/DiI stock solution in MeOH was charged into an empty vial and placed in a vacuum oven to remove the organic solvent. Lipidoids (2.0 mg) in 200 μL of methanol were then added into the vial and stirred to produce a homogeneous solution. Then, 600 μL of DI water was added dropwise in 10 min with continuous stirring. The resulting mixture was dialyzed against DI water for 24 h (Thermo Scientific Slide-A-Lyzer Dialysis Cassette, MWCO=3500 Da), and fresh water was replaced every 4 h. Typical procedures for encapsulation of calcein and doxonorubicin hydrochloride are as follows: precalculated amounts of calcein or Dox stock solutions in DI water was diluted into 800 μL with sodium acetate buffer, and used as the selective solvents to trigger the self-assembly process of lipidoids in methanol (5 mg/mL), respectively. The unloaded calcein or Dox was removed by dialysis against DI water (Thermo Scientific Slide-A-Lyzer Dialysis Cassette, MWCO=3500 Da).
The reduction triggered release behavior of encapsulated cargoes was then studied by using nile red loaded 75-OCholB LNPs (NR/75-OCholB), taking advantage of the microenvironmental polarity sensitive photophysical property of nile red. […] In the meantime, 20 μM Cysteine treated NR/75-OCholB released 4.2% of nile red in 2 h and 6.9% in 6 h, which could be ascribed to the previously discussed minimal structural and morphological changes of the LNPs under the stimulus of low concentration of thiols (FIGS. 11A and 11C). […] Furthermore, the binding affinity of OCholB LNPs with negatively charged macromolecular cargo, Cy5-RNA, was examined. […] Additionally, similar to the responsiveness study, it is reasonable that the cargo release profiles could depend on both of the species and concentrations of the thiols-containing regents. Above all, OCholB LNPs loaded with cargoes are relatively stable in the presence of low concentration of thiols and the triggered release behaviors of cargo molecules with different physicochemical properties (hydrophobic/hydrophilic, low/high molecular weight, etc.) could be expected.

[5] = test system: Ai14 mice; assay: In vivo genome editing, intramuscular injection, tdTomato expression; set-up: species or system mouse; settings: single IM dose, day 10
Method: Similar to the in vitro transfection study, lipidoid nanoparticles were prepared for mRNA or protein loading and in vivo delivery. Ai14 mice were housed in a temperature and humidity controlled facility with a 12 h light/dark cycle. Three mice in each group were injected (intravenously or intramuscularly) with Cre mRNA-loaded or (−30)GFP-Cre protein-loaded LNPs formulations. Organs including heart, liver, spleen, lung and kidney from all groups were collected at day 10 (intramuscular injection) or 14 (intravenous injection) after injection. The tissues were fixed overnight in 4% paraformaldehyde (PFA) and dehydrated in 30% sucrose before being froze in OCT and sectioned into 10-15 μm slices. The slices were then collected and stained with DAPI for fluorescence imaging (BZ-X Analyzer fluorescence microscopy).
Cre-loxP system and transgenic Ai14 mouse model were used in the in vivo genome editing study. […] When the Cre recombinase mediated gene reorganization occurs, the STOP cassette could be removed, resulting in the expression of fluorescent tdTomato reporter protein.
Local delivery through intramuscular injection (IM injection; rear leg) using (−30)GFP-Cre protein and Cre mRNA loaded 76-OCholB LNPs (FIG. 17B). Ai14 mice (n=3) received single dose of (−30)GFP-Cre/LNPs (50 μg of protein) or mRMA/LNPs (10 μg of mRNA) injection at day 1 and were sacrificed at day 10. […]

[6] = 10/1 weight ratio, DTT (10 mM, 24 h) treated nanoparticles

SMILES | cell viability / dose-dependent cytotoxicity [1] | RNA molecules complexed with LNPs ([2]; 10/1 weight ratio lipidoid/Cy5-RNA) | RNA binding efficacy [2, 6] | unbound Cy5-RNA [2, 6] | increase of calcein fluorescence intensity vs untreated and cysteine treated LNPs [3] | encapsulated nile red released ([4]; 20 μM Cysteine, 2 h) | encapsulated nile red released ([4]; 20 μM Cysteine, 6 h) | encapsulated nile red released ([4]; 1 mM DTT, 2 h) | encapsulated nile red released ([4]; 1 mM DTT, 6 h) | encapsulated nile red released ([4]; 5 mM DTT, 2 h) | encapsulated nile red released ([4]; 5 mM DTT, 6 h) | encapsulated nile red released ([4]; 10 mM DTT, 2 h) | encapsulated nile red released ([4]; 10 mM DTT, 6 h) | tdTomato fluorescent signals in skeletal muscle ([5]; (−30)GFP-Cre protein loaded, 50 μg protein) | tdTomato fluorescent signals in skeletal muscle ([5]; Cre mRNA loaded, 10 μg mRNA)
CCN(CC)CCN(CCC(=O)OCCSSCCNC(=O)OC1CCC2(C)C(=CCC3C2CCC2(C)C(C(C)CCCC(C)C)CCC32)C1)CCC(=O)OCCSSCCNC(=O)OC1CCC2(C)C(=CCC3C2CCC2(C)C(C(C)CCCC(C)C)CCC32)C1 (stereo not drawn) [Lipidoid 75-OCholB] | > 80% | 82.9% | 15.5% | 84.5% | 4.7-6.4 folds | 4.2% | 6.9% | 33.5% | 44.0% | 61.7% | 84.2% | 67.4% | 86.4% |  | 
CC(C)CCCC(C)C1CCC2C3CC=C4CC(OC(=O)NCCSSCCOC(=O)CCN(CCC(=O)OCCSSCCNC(=O)OC5CCC6(C)C(=CCC7C6CCC6(C)C(C(C)CCCC(C)C)CCC76)C5)CCN5CCCC5)CCC4(C)C3CCC12C (stereo not drawn) [Lipidoid 76-OCholB] |  |  |  |  |  |  |  |  |  |  |  |  |  | strong tdTomato fluorescent signals | strong tdTomato fluorescent signals
